From patent US20070128181A1, “Methods of Preventing Morbidity and Mortality by Perioperative Administration of a Blood Clotting Inhibitor” (priority 2002, published 2007)

Tested on: patients with medically-refractory coronary artery disease scheduled for coronary artery bypass surgery
Experiment: Prospective, longitudinal study of aspirin use within 48 hours of revascularization in coronary artery bypass surgery patients
Format: in vivo
Text: A prospective, longitudinal study enrolled 5,436 patients. Eligible patients included those with medically-refractory coronary artery disease and scheduled for coronary artery bypass surgery at 70 medical institutions among 17 countries in North and South America, Europe, the Middle East and Asia. At each institution, 100 patients were to be prospectively enrolled according to a systematic sampling scheme that allowed a random sampling of patients at each institution among all patients undergoing surgery at that institution.
Of the 5,436 patients enrolled, 5,065 patients completed the study and were included in the final analysis. Of the 371 patients excluded, 32 were excluded due to patient withdrawal, 2 due to death prior to surgery, 97 due to cancellation or rescheduling of surgery, 132 patients due to change in procedure, 11 due to inadvertent enrollment in another study, 86 due to incomplete data and 11 due to incomplete blood sampling, shipping or storage.
Aspirin was administered in doses of 160 mg to 650 mg to 3,001 patients within 48 hours of revascularization. All potential side-effects associated with aspirin use were recorded daily by blinded investigators. Independent investigators coded all medications received-including pro- and anti-thrombotic and pro- and anti-coagulant medications, and blood products—by day throughout hospitalization, as well as at admission and at discharge, or until death.
For each enrolled patient, approximately 7,500 fields of data were collected throughout the patient's index hospitalization, from admission until discharge, by independent investigators; treated physicians were blinded to all research data. Data included demographic, historical, clinical, laboratory, eloectrocardiographic, specialized testing, resource utilization, and adverse outcomes. Following last patient enrollment, all data fields for each patient were queried centrally for completeness and accuracy, with all changes documented prior to database closure.
All outcomes were prespecified, defined by protocol, and discerned by investigators blinded to treatment group. Fatal and non-fatal outcomes were classified as cardiac (myocardial infarction, congestive heart failure and cardiac death), cerebral (stroke, encephalopathy and cerebral death), renal (dysfunction, failure and renal death), gastrointestinal (ischemia, infarction and GI death), or other (such as infectious, pulmonary). The diagnosis of myocardial infarction required either: the development of new Q waves (as defined by Minnesota Code 1-1-1I or 1I-2-7); or new persistent S T-segment or T-wave changes (Minnesota Code 4-1,4-2, 5-1 or 5-2) associated with an elevation of CK-MB isoenzyme values; or autopsy evidence of acute myocardial infarction. The diagnosis of heart failure required either: the use of a ventricular assist device; or the use of continuous inotropic support for at least 24 hours; or autopsy evidence of heart failure. Cerebral outcomes were classified as: clinically diagnosed stroke or encephalopathy; or CT, MRI or autopsy evidence of a focal or global defect. Renal dysfunction was defined as: a serum creatinine ≧177 μmol/L accompanied by a ≧62 μmol/L rise over baseline; and renal failure was defined as dysfunction requiring dialysis, or autopsy evidence of renal failure. Gastrointestinal ischemia was defined as abdominal pain diagnosed as intestinal ischemia, or detected at exploration; infarction required bowel resection, or autopsy evidence of intestinal infarction.
The risk of death for aspirin taking versus control populations were compared using the Chi-Square test. Individual ischemic outcomes involving the heart, brain, kidney and gastrointestinal tract, and combined ischemic outcomes were compared using Fisher's Exact Test or the Chi-Square test as appropriate. Odds ratios and the 95% confidence intervals are presented with associated P values. […]

SMILES | risks of dying and ischemic complications associated with platelet transfusion after reperfusion and prophylactic anti-fibrinolytics (FIG. 3A) | risk of dying during hospitalization (aspirin within 48 hours of revascularization, v. 5.9% without aspirin, P<0.0001) [%] | risk of non-fatal ischemic complications associated with the heart, brain, kidney or gastrointestinal tract (aspirin within 48 hours of revascularization, v. 24.5% without aspirin, P<0.0001) [%] | Odds Ratio, Multivariate Analyses for Morality (discontinuation of use (Table 3B)) | survival over the first 30 postsurgical days (early aspirin use, FIG. 2) | reduction in mortality (first use of aspirin 48 hours after surgery, not significant, P=0.534) [%] | Gastritis, % of patients (human, in vivo) [%] | Hemorrhage: Gastrointestinal tract bleeding, % of patients (human, in vivo) [%] | Hemorrhage: Other Source of Bleeding, % of patients (human, in vivo) [%] | Impaired Wound Healing, % of patients (human, in vivo) [%] | Infection, % of patients (human, in vivo) [%] | Return to operating room for bleeding, % of patients (human, in vivo) [%] | Odds Ratio, Multivariate Analyses for Morality (use at admission (Table 3B)) | Odds Ratio, Multivariate Analyses for Morality (use following revascularization, 95% CI 0.19-0.40, P <0.0001) | Odds Ratio, Multivariate Analyses for Morality (use prior to surgery (Table 3B)) | Length of hospitalization (versus 11.32±9.44 without aspirin, P<0.0001) | patients who died within 12 hours of surgery (versus 25 patients in the control group) | patients who died within 48 hours of surgery (versus 42 patients from the control group) | Odds Ratio, Multivariate Analyses for Morality (use over the week prior to revascularization, 95% CI 1.23-3.25, P 0.005)
CC(=O)Oc1ccccc1C(=O)O [Aspirin, aspirin] | substantially reduced, but did not eliminate these risks | 1.4 | 13.6 | 1.04 | Improved survival | 15 | 0.33 | 1.1 | 1.7 | 4.5 | 8.4 | 1.9 | 1.46 | 0.27 | 0.77 | 9.57±7.14 | none | one | –
CC(=O)CC(c1ccccc1)c1c(O)c2ccccc2oc1=O (stereo not shown) [Warfarin/coumadin, warfarin] | – | – | – | – | – | – | – | – | – | – | – | – | – | – | – | – | – | – | 2.00
